Data reported in ChEMBL document CHEMBL3509421, “FDA drug approval package for diclofenac acid (NDA 22-202 CP, Ref ID: 3374276)”.

How the values were obtained:
[1] = Mean AUC (0-infinity) value of diclofenac following single oral dosing of 18 mg Zorvolex capsule in healthy human; assay type: ADME, organism-based; set-up: time infinity, dietary status Fasting, dose 18 mg, dosed compound id 2.46815e+06, dosed compound name Diclofenac, gender Mixed, regimen Single, route oral; settings: both, plasma, read-out: AUC (0-infinity)
[2] = (§1) Mean terminal elimination half-life of diclofenac potassium following oral dosing of Cataflam 50 mf tablet in healthy human; settings: both, plasma, 50 mg
[3] = Mean Cmax of diclofenac potassium following oral dosing of PRO-513 50 mg sachet in healthy human; assay type: ADME, organism-based; set-up: dietary status Fed, dose 50 mg, dosed compound id 2.46815e+06, dosed compound name Diclofenac potassium, gender Mixed, regimen Single, route oral, study doses 50 mg; settings: both, plasma
[4] = Mean AUC(0-infinity) of diclofenac potassium following oral dosing of Cataflam 50 mf tablet in healthy human; assay type: ADME, organism-based; set-up: time infinity, dietary status Fasting, dose 50 mg, dosed compound id 2.46815e+06, dosed compound name Diclofenac potassium, gender Mixed, regimen Single, route oral, study doses 50 mg; settings: both, plasma, 50 mg, read-out: AUC(0-infinity)
[5] = (§2) Mean AUC(0-t) of diclofenac potassium following oral dosing of Cataflam 50 mf tablet in healthy human; assay type: ADME, organism-based; set-up: dietary status Fed, dose 50 mg, dosed compound id 2.46815e+06, dosed compound name Diclofenac potassium, gender Mixed, regimen Single, route oral, study doses 50 mg; settings: both, plasma, 50 mg
[6] = Minimum tmax of diclofenac following single oral dosing of 50 mg Cataflam tablet in healthy human; assay type: ADME, organism-based, Plasma; set-up: dietary status Fasting, dose 50 mg, dosed compound id 2.46815e+06, dosed compound name Diclofenac potassium, gender Mixed, regimen Single, route oral; settings: in vivo
[7] = Mean Tmax of diclofenac following single oral dosing of 50 mg diclofenac potassium soft gelatin capsule in healthy human; assay type: ADME, organism-based; set-up: dietary status Fasting, dose 50 mg, dosed compound id 2.46815e+06, dosed compound name Diclofenac potassium, gender Mixed, regimen Single, route oral, study doses 25/50 mg; settings: both, plasma
[8] = as §1; settings: both, plasma, 50 mg; remark: listed apart in the source
[9] = Mean Cmax of diclofenac potassium following oral dosing of Cataflam 50 mf tablet in healthy human; assay type: ADME, organism-based; set-up: dietary status Fed, dose 50 mg, dosed compound id 2.46815e+06, dosed compound name Diclofenac potassium, gender Mixed, regimen Single, route oral, study doses 50 mg; settings: both, plasma, 50 mg
[10] = Mean AUC (0-infinity) of diclofenac following single oral dosing of 25 mg diclofenac potassium softgel capsule in healthy human; assay type: ADME, organism-based; set-up: time infinity, dietary status Fed, dose 25 mg, dosed compound id 2.46815e+06, dosed compound name Diclofenac potassium, gender Mixed, regimen Single, route oral, study doses 25/50 mg; settings: both, plasma, read-out: AUC (0-infinity)
[11] = Mean median Tmax value of diclofenac potassium following oral dosing of PRO-513 50 mg sachet in healthy human; assay type: ADME, organism-based; set-up: dietary status Fed, dose 50 mg, dosed compound id 2.46815e+06, dosed compound name Diclofenac potassium, gender Mixed, regimen Single, route oral, study doses 50 mg; settings: both, plasma, read-out: Median Tmax
[12] = Mean AUC (0-t) value of diclofenac following single oral dosing of 18 mg Zorvolex capsule in healthy human; assay type: ADME, organism-based; set-up: dietary status Fasting, dose 18 mg, dosed compound id 2.46815e+06, dosed compound name Diclofenac, gender Mixed, regimen Single, route oral; settings: both, plasma
[13] = Geometric mean for Cmax of diclofenac following single oral dosing of 18 mg Zorvolex capsule in healthy human; assay type: ADME, organism-based; set-up: dietary status Fasting, dose 18 mg, dosed compound id 2.46815e+06, dosed compound name Diclofenac, gender Mixed, regimen Single, route oral; settings: both, plasma
[14] = Mean Cmax of diclofenac following single oral dosing of 25 mg diclofenac potassium softgel capsule in healthy human; assay type: ADME, organism-based; set-up: dietary status Fed, dose 25 mg, dosed compound id 2.46815e+06, dosed compound name Diclofenac potassium, gender Mixed, regimen Single, route oral, study doses 25/50 mg; settings: both, plasma
clinical [15] = settings: both, human, plasma, po, 50 mg
[16] = Mean AUC (0-t) value of diclofenac following single oral dosing of 35 mg Zorvolex capsule in healthy human; assay type: ADME, organism-based; set-up: dietary status Fed, dose 35 mg, dosed compound id 2.46815e+06, dosed compound name Diclofenac, gender Mixed, regimen Single, route oral; settings: both, plasma
[17] = Mean minimum Tmax value of diclofenac potassium following oral dosing of Cataflam 50 mf tablet in healthy human; assay type: ADME, organism-based; set-up: dietary status Fasting, dose 50 mg, dosed compound id 2.46815e+06, dosed compound name Diclofenac potassium, gender Mixed, regimen Single, route oral, study doses 50 mg; settings: both, plasma, 50 mg, read-out: Minimum Tmax
[18] = Mean Tmax of diclofenac following single oral dosing of 25 mg diclofenac potassium soft gelatin capsule in healthy human; assay type: ADME, organism-based; set-up: dietary status Fasting, dose 25 mg, dosed compound id 2.46815e+06, dosed compound name Diclofenac potassium, gender Mixed, regimen Single, route oral, study doses 25/50 mg; settings: both, plasma
[19] = (§3) Mean AUC(0-infinity) of diclofenac potassium following oral dosing of PRO-513 50 mg sachet in healthy human; assay type: ADME, organism-based; set-up: time infinity, dietary status Fasting, dose 50 mg, dosed compound id 2.46815e+06, dosed compound name Diclofenac potassium, gender Mixed, regimen Single, route oral, study doses 50 mg; settings: both, plasma, read-out: AUC(0-infinity)
[20] = as §2; assay type: ADME, organism-based; set-up: dietary status Fasting, dose 50 mg, dosed compound id 2.46815e+06, dosed compound name Diclofenac potassium, gender Mixed, regimen Single, route oral, study doses 50 mg; settings: both, plasma, 50 mg
[21] = Mean Cmax value of diclofenac following single oral dosing of 35 mg Zorvolex capsule in healthy human; assay type: ADME, organism-based; set-up: dietary status Fed, dose 35 mg, dosed compound id 2.46815e+06, dosed compound name Diclofenac, gender Mixed, regimen Single, route oral; settings: both, plasma
[22] = Mean Tmax of diclofenac following single oral dosing of 25 mg diclofenac potassium softgel capsule in healthy human; assay type: ADME, organism-based; set-up: dietary status Fasting, dose 25 mg, dosed compound id 2.46815e+06, dosed compound name Diclofenac potassium, gender Mixed, regimen Single, route oral, study doses 25/50 mg; settings: both, plasma
[23] = Mean Cmax value of diclofenac following single oral dosing of 18 mg Zorvolex capsule in healthy human; assay type: ADME, organism-based; set-up: dietary status Fasting, dose 18 mg, dosed compound id 2.46815e+06, dosed compound name Diclofenac, gender Mixed, regimen Single, route oral; settings: both, plasma
[24] = Mean maximum Tmax value of diclofenac potassium following oral dosing of PRO-513 50 mg sachet in healthy human; assay type: ADME, organism-based; set-up: dietary status Fasting, dose 50 mg, dosed compound id 2.46815e+06, dosed compound name Diclofenac potassium, gender Mixed, regimen Single, route oral, study doses 50 mg; settings: both, plasma, read-out: Maximum Tmax
[25] = as §3; assay type: ADME, organism-based; set-up: time infinity, dietary status Fed, dose 50 mg, dosed compound id 2.46815e+06, dosed compound name Diclofenac potassium, gender Mixed, regimen Single, route oral, study doses 50 mg; settings: both, plasma, read-out: AUC(0-infinity)
[26] = Geometric mean for Cmax of diclofenac following single oral dosing of 50 mg Cataflam tablet in healthy human; assay type: ADME, organism-based; set-up: dietary status Fed, dose 50 mg, dosed compound id 2.46815e+06, dosed compound name Diclofenac potassium, gender Mixed, regimen Single, route oral; settings: both, plasma
[27] = Geometric mean for AUC (0-t) of diclofenac following single oral dosing of 35 mg Zorvolex capsule in healthy human; assay type: ADME, organism-based; set-up: dietary status Fasting, dose 35 mg, dosed compound id 2.46815e+06, dosed compound name Diclofenac, gender Mixed, regimen Single, route oral; settings: both, plasma
[28] = Maximum tmax of diclofenac following single oral dosing of 35 mg Zorvolex capsule in healthy human; assay type: ADME, organism-based, Plasma; set-up: dietary status Fasting, dose 35 mg, dosed compound id 2.46815e+06, dosed compound name Diclofenac, gender Mixed, regimen Single, route oral; settings: in vivo
[29] = Mean apparent terminal elimination rate constant value of diclofenac following single oral dosing of 35 mg Zorvolex capsule in healthy human; assay type: ADME, organism-based, Plasma; set-up: dietary status Fed, dose 35 mg, dosed compound id 2.46815e+06, dosed compound name Diclofenac, gender Mixed, regimen Single, route oral; settings: in vivo
clinical [30] = settings: both, human, plasma, po, 50 mg; remark: listed apart in the source
Description: Mean terminal elimination half-life of diclofenac following single oral dosing of 50 mg diclofenac potassium softgel capsule in healthy human

[31] = Median tmax of diclofenac following single oral dosing of 50 mg Cataflam tablet in healthy human; assay type: ADME, organism-based; set-up: dietary status Fed, dose 50 mg, dosed compound id 2.46815e+06, dosed compound name Diclofenac potassium, gender Mixed, regimen Single, route oral; settings: both, plasma, read-out: Median Tmax
[32] = Geometric mean for AUC (0-t) of diclofenac following single oral dosing of 50 mg Cataflam tablet in healthy human; assay type: ADME, organism-based; set-up: dietary status Fed, dose 50 mg, dosed compound id 2.46815e+06, dosed compound name Diclofenac potassium, gender Mixed, regimen Single, route oral; settings: both, plasma

O=C(O)Cc1ccccc1Nc1c(Cl)cccc1Cl [DICLOFENAC]
AUC(0-inf) [1]: 499 ng·h/mL | half-life [2]: 93.6 min | Cmax [3]: 506 ng/mL | AUC(0-inf) [4]: 1100 ng·h/mL | AUC(0-t) [5]: 1060 ng·h/mL | Minimum Tmax [6]: 15 min | Tmax [7]: 28.8 min | half-life [8]: 77.4 min | Cmax [9]: 835 ng/mL | AUC(0-inf) [10]: 713 ng·h/mL | Tmax [11]: 10.2 min | AUC(0-t) [12]: 490 ng·h/mL | Cmax [13]: 454 ng/mL | Cmax [14]: 686 ng/mL | half-life (clinical [15]): 87 min | AUC(0-t) [16]: 861 ng·h/mL | Tmax [17]: 15 min | Tmax [18]: 27 min | AUC(0-inf) [19]: 1250 ng·h/mL | AUC(0-t) [20]: 1080 ng·h/mL | Cmax [21]: 355 ng/mL | Tmax [22]: 29.4 min | Cmax [23]: 496 ng/mL | Tmax [24]: 40.2 min | AUC(0-inf) [25]: 1080 ng·h/mL | Cmax [26]: 621 ng/mL | AUC(0-t) [27]: 980 ng·h/mL | Maximum Tmax [28]: 4 h | lambda-z [29]: 0.371 h⁻¹ | half-life (clinical [30]): 66 min | Tmax [31]: 2.33 h | AUC(0-t) [32]: 1150 ng·h/mL
